# Where two headings read alike, the source gives them in different places. Residues, ends and D or L forms follow the SMILES beside them.
# Legend:
# [1] = Viability of fibroblast cells, MTT assay; type: cell-based, Human; conditions: human, primary dermal fibroblast cells
# Method: Viability of fibroblast cells was examined with the use of the MTT assay. MTT, a yellow tetrazole, is reduced to purple formazan only in living cells. Absorbance of the coloured solution was measured by a spectrophotometer.
# These studies were performed on primary dermal fibroblasts cells. The cells were maintained in DMEM supplemented with 10% fetal bovine serum (FBS), 2 mM glutamin, 50 U/mL penicillin and […] streptomycin at 37 °C in a 5% CO2 incubator. For experiments, cells cultures were plated at a density of 1 × 10^6/well in six-well culture plates (Costar, St. Louis, MO, USA) in 2 mL of growth medium. Cells reached about 80% of confluency at day 2 were used for the assays.
# Toxicity of the tested substances was determined using an MTT [3-(4,5-dimethylthiazol-2-yl)-2,5-diphenyltetrazolium bromide)] assay. Palmitoyl and lipoyl peptides were dissolved in DMSO (dimethyl sulfoxide), the other peptides in DMEM, and added to the cell culture medium. Simultaneously, the same concentrations of DMSO without peptides were added to cells, serving as controls. The final peptide concentrations were: 1 μM, 10 μM, and 100 μM. After 24 h incubation, the cells cultured with the tested compounds were washed with phosphate-buffered saline (PBS) and then incubated for 4 h in 2 mL of MTT solution (5 mg/mL). After removing the medium, the cells were lysed in 200 μL of DMSO with 20 μL of Sorensen’s buffer (pH 10.5, 0.1 mol/L glycine with 0.1 mol/L NaCl). The absorbance of converted dye in living cells was measured at a wavelength of 570 nm. The mean values ± SD from three independent experiments done in duplicate are presented.
# plasmin = biological target: T1, plasmin (Homo sapiens, UniProt P00747); assay: Amidolytic activity of plasmin (chromogenic substrate H-D-Val-Leu-Lys-pNA); type: biochemical
# T1 construct: purchased Chromogenix (Milano, Italy)
# T1 sequence (P00747 581-810 limits assumed): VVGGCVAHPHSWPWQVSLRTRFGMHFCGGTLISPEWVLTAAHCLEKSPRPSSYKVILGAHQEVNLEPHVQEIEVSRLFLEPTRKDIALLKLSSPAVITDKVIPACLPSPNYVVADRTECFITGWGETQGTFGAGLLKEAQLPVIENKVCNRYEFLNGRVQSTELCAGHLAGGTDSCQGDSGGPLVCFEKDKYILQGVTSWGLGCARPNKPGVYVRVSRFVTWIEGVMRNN
# T1 sequence (P00747 97-580 partner limits assumed): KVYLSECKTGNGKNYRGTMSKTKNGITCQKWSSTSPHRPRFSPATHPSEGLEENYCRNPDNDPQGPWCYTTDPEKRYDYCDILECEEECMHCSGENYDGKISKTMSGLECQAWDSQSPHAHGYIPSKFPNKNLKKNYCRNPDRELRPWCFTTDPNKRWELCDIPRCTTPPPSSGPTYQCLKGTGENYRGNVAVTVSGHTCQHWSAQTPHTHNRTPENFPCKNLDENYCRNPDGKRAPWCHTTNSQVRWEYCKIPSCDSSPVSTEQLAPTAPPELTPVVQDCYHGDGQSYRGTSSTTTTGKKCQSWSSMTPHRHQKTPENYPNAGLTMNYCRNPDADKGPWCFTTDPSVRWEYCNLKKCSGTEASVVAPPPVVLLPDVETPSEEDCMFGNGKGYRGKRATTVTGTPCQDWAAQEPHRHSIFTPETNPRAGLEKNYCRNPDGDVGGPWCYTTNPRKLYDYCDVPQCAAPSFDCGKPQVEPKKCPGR
# Method: (§1) The determination of amidolytic activity was performed as previously described by Okada. A detailed description of the method is given below: 0.2 mL of the examined peptides (0.15 M NaCl as contro), a buffer, and 0.1 mL of enzyme solution were mixed. The final peptide concentrations were: 0.2 mM, 2 mM, and 20 mM. The mixture was incubated at 37 °C for 3 min; then the synthetic substrate solution was added in the same buffer. After 20 min of incubation, the reaction was stopped by adding 0.1 mL of 50% acetic acid and the absorbance of the released p-nitroaniline was measured at 405 nm. The mean values from three independent experiments done in duplicate are presented. A method error of 5% was adopted as statistical error. IC50 value was considered as the concentration of inhibitor that reduces absorbance by 50%, compared with absorbance measured under the same conditions without an inhibitor. IC50 was calculated mathematically by extrapolation using a linear plot. IC50 values are presented in Table 1 and Table 2, and graphically in Figure 1.
# (§2) The buffers and the enzyme solutions included: • Tris buffer—0.6 mL (pH 8.8), enzyme: urokinase (50 units/mL), synthetic substrate: pyro-Glu-Gly-Arg-pNA·HCl (0.1 mL, 3 mM); • Tris buffer—0.5 mL (pH 8.4), enzyme: thrombin (1 units/mL), synthetic substrate: H-D-Phe-Pip-Arg-pNA (0.2 mL, 0.75 mM); • Tris buffer—0.5 mL (pH 7.4), enzyme: plasmin (0.4 units/mL), synthetic substrate: H-D-Val-Leu-Lys-pNA (0.2 mL, 3 mM); • Borate buffer—0.5 mL (pH 7.5), enzyme: trypsin (0.4 units/mL), synthetic substrate: Bzl-L-Arg-pNA·HCl (0.2 mL, 8 mM); • Tris buffer—0.6 mL (pH 9.0), enzyme: kallikrein (3 units/mL), synthetic substrate: H-D-Val-Leu-Arg-pNA·2HCl (0.1 mL, 75 mM); • Tris buffer—0.6 mL (pH 8.4), enzyme: t-PA ([…]), synthetic substrate: H-D-Ile-Pro-Arg-pNA (0.1 mL, 10 mM) • Tris buffer—0.6 mL (pH 9.0), enzyme: chymotrypsin (0.4 units/mL), synthetic substrate: Suc-Phe-pNA (0.2 mL, 8 mM)
# urokinase = biological target: T2, urokinase (Homo sapiens, UniProt P00749); assay: Amidolytic activity of urokinase (chromogenic substrate pyro-Glu-Gly-Arg-pNA); type: biochemical
# T2 construct: purchased Sigma (Schnelldorf, Germany)
# Method: as §1, §2
# thrombin = biological target: T3, thrombin (Bos taurus, UniProt P00735); assay: Amidolytic activity of thrombin (chromogenic substrate H-D-Phe-Pip-Arg-pNA); type: biochemical
# T3 construct: purchased Lubelska Wytwórnia Szczepionek (Lublin, Poland)
# Method: The determination of amidolytic activity was performed as previously described by Okada. A detailed description of the method is given below: 0.2 mL of the examined peptides (0.15 M NaCl as contro), a buffer, and 0.1 mL of enzyme solution were mixed. The final peptide concentrations were: 0.2 mM, 2 mM, and 20 mM. The mixture was incubated at 37 °C for 3 min; then the synthetic substrate solution was added in the same buffer. […] The mean values from three independent experiments done in duplicate are presented. A method error of 5% was adopted as statistical error. […] IC50 was calculated mathematically by extrapolation using a linear plot.
# [2] = 1 µmol/L, 24 h, MTT, ± 2, read-out: Viability of fibroblast cells
# [3] = 10 µmol/L, 24 h, MTT, ± 2, read-out: Viability of fibroblast cells
# [4] = 100 µmol/L, 24 h, MTT, ± 2, read-out: Viability of fibroblast cells
# [5] = amidolytic activity, Tris pH 7.4, 37 °C, IC50 by extrapolation using a linear plot, error 5%, read-out: IC50 Plasmin
# [6] = amidolytic activity, Tris pH 8.8, 37 °C, IC50 by extrapolation using a linear plot, error 5%, read-out: IC50 Urokinase
# [7] = amidolytic activity, Tris pH 8.4, 37 °C, IC50 by extrapolation using a linear plot, error 5%, read-out: IC50 Thrombin
Compound,IC50 (plasmin; [5]),IC50 (urokinase; [6]),IC50 (thrombin; [7]),IC50 (thrombin),"IC50 (thrombin; converted from IC50 of Table 1, read-out: -logIC50 Thrombin (converted))","IC50 (plasmin; amidolytic activity, palmitic peptides, read-out: IC50 plasmin (text, micromolar))","IC50 (plasmin; converted from IC50 of Table 1, read-out: -logIC50 Plasmin (converted))","viability at 24 h, 1 µmol/L [1, 2]","viability at 24 h, 10 µmol/L [1, 3]","viability at 24 h, 100 µmol/L [1, 4]","viability at 24 h, 1 µmol/L [1]","viability at 24 h, 10 µmol/L [1]","viability at 24 h, 100 µmol/L [1]",IC50 (urokinase)
"C[C@@H](O)[C@H](NC(=O)[C@H](CCCCN)NC(=O)CCCCC1CCSS1)C(=O)N[C@H](C(=O)N[C@@H](CCCCN)C(=O)N[C@@H](CO)C(N)=O)[C@@H](C)O (mixture of isomers) [Peptide 7, Lip-Lys-Thr-Thr-Lys-Ser-NH2]",580 ± 29 µM,15100 ± 750 µM,11700 ± 580 µM,–,–,–,–,97%,89%,87%,–,–,–,–
"C[C@@H](O)[C@H](NC(=O)[C@H](CCCCN)NC(=O)CCCCC1CCSS1)C(=O)N[C@H](C(=O)N[C@@H](CCCNC(=N)N)C(=O)N[C@@H](CO)C(=O)O)[C@@H](C)O (mixture of isomers) [Peptide 11, Lip-Lys-Thr-Thr-Arg-Ser-OH]",240 ± 12 µM,–,10900 ± 540 µM,–,–,–,–,102%,105%,98%,–,–,–,–
"C[C@@H](O)[C@H](NC(=O)[C@H](CCCCN)NC(=O)CCCCC1CCSS1)C(=O)N[C@H](C(=O)N[C@@H](CCCNC(=N)N)C(=O)N[C@@H](CO)C(N)=O)[C@@H](C)O (mixture of isomers) [Peptide 15, Lip-Lys-Thr-Thr-Arg-Ser-NH2]",690 ± 35 µM,3470 ± 170 µM,–,4110 ± 210 µM,–,–,–,–,–,–,112%,122%,115%,–
"CCCCCCCCCCCCCCCC(=O)N[C@@H](CCCCN)C(=O)N[C@H](C(=O)N[C@H](C(=O)N[C@@H](CCCCN)C(=O)N[C@@H](CO)C(N)=O)[C@@H](C)O)[C@@H](C)O [Peptide 8, Pal-Lys-Thr-Thr-Lys-Ser-NH2] (HELM PEPTIDE1{[CCCCCCCCCCCCCCCC(=O)[*:2]].K.T.T.K.S.[am]}$$$$V2.0)",–,3120 ± 160 µM,–,–,–,< 200 µM,–,96%,83%,83%,–,–,–,–
"CCCCCCCCCCCCCCCC(=O)N[C@@H](CCCCN)C(=O)N[C@H](C(=O)N[C@H](C(=O)N[C@@H](CCCNC(=N)N)C(=O)N[C@@H](CO)C(=O)O)[C@@H](C)O)[C@@H](C)O [Peptide 12, Pal-Lys-Thr-Thr-Arg-Ser-OH] (HELM PEPTIDE1{[CCCCCCCCCCCCCCCC(=O)[*:2]].K.T.T.R.S}$$$$V2.0)",–,–,–,–,–,–,–,103%,98%,99%,–,–,–,–
"CCCCCCCCCCCCCCCC(=O)N[C@@H](CCCCN)C(=O)N[C@H](C(=O)N[C@H](C(=O)N[C@@H](CCCNC(=N)N)C(=O)N[C@@H](CO)C(N)=O)[C@@H](C)O)[C@@H](C)O [Peptide 16, Pal-Lys-Thr-Thr-Arg-Ser-NH2] (HELM PEPTIDE1{[CCCCCCCCCCCCCCCC(=O)[*:2]].K.T.T.R.S.[am]}$$$$V2.0)",–,–,–,–,–,–,–,104%,114%,115%,–,–,–,2370 ± 120 µM
"CCCCCCCCCCCCCCCC(=O)N[C@@H](CCCNC(=N)N)C(=O)N[C@H](C(=O)N[C@H](C(=O)N[C@@H](CCCCN)C(=O)N[C@@H](CO)C(N)=O)[C@@H](C)O)[C@@H](C)O [Peptide 32, Pal-Arg-Thr-Thr-Lys-Ser- NH2] (HELM PEPTIDE1{[CCCCCCCCCCCCCCCC(=O)[*:2]].R.T.T.K.S.[am]}$$$$V2.0)",–,–,–,–,–,–,–,104%,113%,118%,–,–,–,–
"H-KTTRS-OH [Peptide 9, H-Lys-Thr-Thr-Arg-Ser-OH]",630 ± 31 µM,–,4010 ± 200 µM,–,–,–,–,93%,103%,101%,–,–,–,–
"H-RTTRS-OH [Peptide 17, H-Arg-Thr-Thr-Arg-Ser-OH]",280 ± 14 µM,–,3890 ± 190 µM,–,–,–,288 µM,89%,99%,115%,–,–,–,–

# Second part, led by results:
IC50 (plasmin; [5]),IC50 (urokinase; [6]),IC50 (thrombin; [7]),IC50 (thrombin),"IC50 (thrombin; converted from IC50 of Table 1, read-out: -logIC50 Thrombin (converted))","IC50 (plasmin; amidolytic activity, palmitic peptides, read-out: IC50 plasmin (text, micromolar))","IC50 (plasmin; converted from IC50 of Table 1, read-out: -logIC50 Plasmin (converted))",Compound,"viability at 24 h, 1 µmol/L [1, 2]","viability at 24 h, 10 µmol/L [1, 3]","viability at 24 h, 100 µmol/L [1, 4]","viability at 24 h, 1 µmol/L [1]","viability at 24 h, 10 µmol/L [1]","viability at 24 h, 100 µmol/L [1]",IC50 (urokinase)
1010 ± 51 µM,–,1840 ± 92 µM,–,–,–,–,"C[C@@H](O)[C@H](NC(=O)[C@H](CCCNC(=N)N)NC(=O)CCCCC1CCSS1)C(=O)N[C@H](C(=O)N[C@@H](CCCNC(=N)N)C(=O)N[C@@H](CO)C(=O)O)[C@@H](C)O (mixture of isomers) [Peptide 19, Lip-Arg-Thr-Thr-Arg-Ser-OH]",79%,81%,90%,–,–,–,–
1890 ± 94 µM,4670 ± 230 µM,2360 ± 120 µM,–,–,–,–,"C[C@@H](O)[C@H](NC(=O)[C@H](CCCNC(=N)N)NC(=O)CCCCC1CCSS1)C(=O)N[C@H](C(=O)N[C@@H](CCCNC(=N)N)C(=O)N[C@@H](CO)C(N)=O)[C@@H](C)O (mixture of isomers) [Peptide 23, Lip-Arg-Thr-Thr-Arg-Ser-NH2]",89%,79%,88%,–,–,–,–
2120 ± 110 µM,–,–,–,4270 µM,–,–,"C[C@@H](O)[C@H](NC(=O)[C@H](CCCNC(=N)N)NC(=O)CCCCC1CCSS1)C(=O)N[C@H](C(=O)N[C@@H](CCCCN)C(=O)N[C@@H](CO)C(=O)O)[C@@H](C)O (mixture of isomers) [Peptide 27, Lip-Arg-Thr-Thr-Lys-Ser-OH]",105%,91%,80%,–,–,–,–
3230 ± 160 µM,4570 ± 230 µM,5590 ± 280 µM,–,–,–,–,"C[C@@H](O)[C@H](NC(=O)[C@H](CCCNC(=N)N)NC(=O)CCCCC1CCSS1)C(=O)N[C@H](C(=O)N[C@@H](CCCCN)C(=O)N[C@@H](CO)C(N)=O)[C@@H](C)O (mixture of isomers) [Peptide 31, Lip-Arg-Thr-Thr-Lys-Ser- NH2]",107%,112%,117%,–,–,–,–
–,260 ± 13 µM,–,–,–,–,–,"CCCCCCCCCCCCCCCC(=O)N[C@@H](CCCNC(=N)N)C(=O)N[C@H](C(=O)N[C@H](C(=O)N[C@@H](CCCNC(=N)N)C(=O)N[C@@H](CO)C(N)=O)[C@@H](C)O)[C@@H](C)O [Peptide 24, Pal-Arg-Thr-Thr-Arg-Ser-NH2] (HELM PEPTIDE1{[CCCCCCCCCCCCCCCC(=O)[*:2]].R.T.T.R.S.[am]}$$$$V2.0)",94%,104%,97%,–,–,–,–
